“And” between values parts separate entries of the source, which are not always exact repeats. Equal values may be shown once. “Also recorded” adds a separate entry of the source. Read-outs that look alike come from different tables or passages of the source.
Key:
[1] = system: SARS-CoV-2 (USA-WA1/2020); parameters: species or system Syrian golden hamster; conditions: hamster, in vivo
in vitro [2] = conditions: human
Huh7 cells = conditions: human
[3] = biological target: T1, purified recombinant M protein (Severe acute respiratory syndrome coronavirus 2, UniProt P0DTC5); type: binding, SARS-CoV-2; conditions: 5 µM compound
T1 construct: SARS-CoV-2 M protein (1–222, UniProt: P0DTC5); ALFA-tag (C); C-tag (EPEA) (C); made in house; host or cells: Expi293F cells (Invitrogen), transient transfection of a pcDNA3.4 construct

HCoV-OC43 = HCoV-OC43 antiviral CPE reduction assay in MRC-5 cells; type: cell-based
Text: 161 determined with Promega CellTiter 96™ via a colorimetric assay (MTS assay). Readout was done
162 using a GloMax® Discover Microplate Reader (Promega).
163 Data were normalized taking the infected cells without treatment and the mock non-infected cells
164 as the bottom and top values of the dose-response curves, respectively. Dose-response curves were
165 fitted using non-linear regression analysis employing a sigmoidal model in Graphpad Prism
166 (version 9.5.0). In each experiment, data were presented as mean ± standard error of the mean of
167 3 technical replicates.
168 HCoV-OC43 antiviral CPE reduction assay
169 For the HCoV-OC43 CPE reduction assay, MRC-5 cells were seeded in black or white 96-well
170 plates (Greiner Bio-One) at a density of 10,000 cells/well and incubated overnight at 37°C. The
171 next day, compound was added to the assay plates in either a 4-fold dilution series or 2-fold dilution
172 series. Sequentially, cells were infected with HCoV-OC43 at a final MOI of 0.3. Plates were then
173 incubated for 6 days at 33°C under 5% CO2. […]
174 determined using the Viral ToxGlo™ assay (Promega) on a BioTek spectrophotometer.
175 Cytotoxicity was evaluated in parallel in treated, uninfected cells in a similar set-up with the same
176 readout. EC50 and CC50 values were calculated using GraphPad Prism 9.5.0. […]
181 0.1. […] Readouts for antiviral activity […]

[4] = biological target: purified recombinant SARS-CoV-2 M (Severe acute respiratory syndrome coronavirus 2, UniProt P0DTC5); assay: Nano differential scanning fluorimetry (nanoDSF); type: binding; conditions: 100 µM compound, 0.5 mg/ml M protein, n=3
in vitro [5] = conditions: African green monkey
MERS-CoV = assay: microbe, parasite or virus in culture; type: cell-based; conditions: Middle East respiratory syndrome-related coronavirus, Huh-7, read-out: Median EC50
SARS-CoV-2 B1 = type: in vivo, Syrian golden hamster; conditions: for Histopathology score, average / Histopathology score, median / Infectious virus in the lung (TCID50/mg), average Log 10 / Infectious virus in the lung (TCID50/mg), median Log 10 / Viral load (viral RNA) in the lung, average Log 10 / Viral load (viral RNA) in the lung, median Log 10: n=5; for Histopathology score, individual animal / Infectious virus in the lung (TCID50/mg), Log 10, individual animal / Infectious virus in the lung, individual animal / Viral load (viral RNA) in the lung, Copy number, individual animal / Viral load (viral RNA) in the lung, Log 10, individual animal: listed as 87009676-AAA
HCoV-229E = assay: microbe, parasite or virus in culture; type: cell-based; conditions: Human coronavirus 229E
SARS-CoV-2 (B1 strain) = assay: microbe, parasite or virus in culture; type: cell-based; conditions: Severe acute respiratory syndrome coronavirus 2; SARS-CoV-2 B1, in a variety of cell types
MHV = MHV antiviral assay in HeLa cells (luciferase); type: cell-based, mouse hepatitis virus; conditions: Murine coronavirus, MHV (betaCoV)
in vivo [6] = conditions: rat
in vivo [7] = conditions: dog
SHC014 = assay: organism not typed; type: cell-based, bat SHC014
PDCoV = PDCoV antiviral CPE reduction assay in Huh7 cells; type: cell-based, porcine deltacoronavirus
[8] = pre-exposure, 8.33 mg/kg BID, 8.33 mg/kg
[9] = pre-exposure, 25 mg/kg BID, 25 mg/kg
[10] = pre-exposure, 75 mg/kg BID, 75 mg/kg
[11] = pre-exposure, 8.33 mpk BID, 8.33 mg/kg
[12] = pre-exposure, 25 mpk BID, 25 mg/kg
[13] = pre-exposure, 75 mpk BID, 75 mg/kg

## C[C@H]1Cn2ncc(C(=O)Nc3cccc(C#N)c3)c2C(=O)N1c1ccc(C(F)(F)c2ccccc2)cc1 [JNJ-9676, (S)-N-(3-cyanophenyl)-5-(4-(difluoro(phenyl)methyl)phenyl)-6-methyl-4-oxo-4,5,6,7-tetrahydropyrazolo[1,5-a]pyrazine-3-carboxamide]
[1]
  Infectious SARS-CoV2 virus in the lung, Avg: 137996 PFU/g Lung and 75729 PFU/g Lung
  Infectious SARS-CoV2 virus in the lung, Log10, Avg: 3.732 Log10 PFU/g Lung and 3.479 Log10 PFU/g Lung
In vitro [2]
  CC50 at 6 days: > 50 µM
Huh7 cells
  CC50: > 30 µM
[3]
  compound recovery with M-protein:Fab B complex compared to M protein alone or M-protein:Fab E complex: significantly higher
[3]; 5 µM M protein
  compound recovery with M protein relative to buffer-only control: reproducible JNJ-9676 recovery
HCoV-OC43; Betacoronavirus 1, MRC5, MRC-5, HCOV-OC43 (betaCoV), EC90 could be calculated in one experiment, read-out: Median EC90
  EC90: 4 µM
HCoV-OC43; Betacoronavirus 1, OC43, MRC5, read-out: Median EC50
  EC50: 3.9 µM
[4]
  Tm: 54.1 ± 0.1 °C
  ΔTm (stabilization in melting temperature): 0.9 °C
In vitro [5]
  CC50: > 50 µM
MERS-CoV
  EC50: 600 nM
SARS-CoV-2 B1; Syrian golden hamster model
  lowest effective dose: 25 mg per kg BID
SARS-CoV-2 B1; pre-exposure, 8.33 mg/kg BID
  Histopathology score, average: 1.80
  Histopathology score, median: 2.00
  Infectious virus in the lung (TCID50/mg), average Log 10: 4.72 Log 10
  Infectious virus in the lung (TCID50/mg), median Log 10: 4.67 Log 10
  Viral load (viral RNA) in the lung, average Log 10: 4.56 Log 10
  Viral load (viral RNA) in the lung, median Log 10: 4.62 Log 10
SARS-CoV-2 B1; [8]
  Histopathology score, individual animal: 2 and 1.5
  Infectious virus in the lung (TCID50/mg), Log 10, individual animal: 5.82 Log 10 and 3.86 Log 10 and 4.99 Log 10 and 4.24 Log 10 and 4.67 Log 10
  Infectious virus in the lung, individual animal: 662125.31 TCID50/mg and 7237.18 TCID50/mg and 98821.18 TCID50/mg and 17573.17 TCID50/mg and 46447.60 TCID50/mg
  Viral load (viral RNA) in the lung, Copy number, individual animal: 2.23E+04 and 1.34E+05 and 8.49E+02 and 4.14E+04 and 6.27E+05
  Viral load (viral RNA) in the lung, Log 10, individual animal: 4.35 Log 10 and 5.13 Log 10 and 2.93 Log 10 and 4.62 Log 10 and 5.80 Log 10
SARS-CoV-2 B1; pre-exposure, 25 mg per kg BID
  cumulative histopathological lung score (in words): reduced to the baseline; also recorded: significantly reduced
SARS-CoV-2 B1; pre-exposure, 25 mg per kg BID, oral
  reduction of viral load in the lung: 3.5 log10[RNA copies per mg lung]
SARS-CoV-2 B1; pre-exposure, 25 mg/kg BID
  Histopathology score, average: 1.40
  Histopathology score, median: 1.50
  Infectious virus in the lung (TCID50/mg), average Log 10: 0.81 Log 10
  Infectious virus in the lung (TCID50/mg), median Log 10: 1.28 Log 10
  Viral load (viral RNA) in the lung, average Log 10: 9.46 Log 10
  Viral load (viral RNA) in the lung, median Log 10: 9.30 Log 10
SARS-CoV-2 B1; [9]
  Histopathology score, individual animal: 1.5 and 1
  Infectious virus in the lung (TCID50/mg), Log 10, individual animal: -2.00 Log 10 and 4.24 Log 10 and 2.52 Log 10 and 1.28 Log 10
  Infectious virus in the lung, individual animal: 0.01 TCID50/mg and 17417.65 TCID50/mg and 328.03 TCID50/mg and 19.08 TCID50/mg
  Viral load (viral RNA) in the lung, Copy number, individual animal: 7.91E+09 and 1.46E+09 and 1.22E+09 and 1.99E+09 and 7.25E+09
  Viral load (viral RNA) in the lung, Log 10, individual animal: 9.90 Log 10 and 9.16 Log 10 and 9.08 Log 10 and 9.30 Log 10 and 9.86 Log 10
SARS-CoV-2 B1; pre-exposure, 75 mg per kg BID
  cumulative histopathological lung score (in words): significantly reduced
SARS-CoV-2 B1; pre-exposure, 75 mg/kg BID
  Histopathology score, average: 1.20
  Histopathology score, median: 1.00
  Infectious virus in the lung (TCID50/mg), average Log 10: 1.08 Log 10
  Infectious virus in the lung (TCID50/mg), median Log 10: 2.38 Log 10
  Viral load (viral RNA) in the lung, average Log 10: 4.57 Log 10
  Viral load (viral RNA) in the lung, median Log 10: 3.13 Log 10
SARS-CoV-2 B1; [10]
  Histopathology score, individual animal: 1 and 1.5
  Infectious virus in the lung (TCID50/mg), Log 10, individual animal: -2.00 Log 10 and 3.24 Log 10 and 3.78 Log 10 and 2.38 Log 10
  Infectious virus in the lung, individual animal: 0.01 TCID50/mg and 1756.82 TCID50/mg and 5984.59 TCID50/mg and 240.02 TCID50/mg
  Viral load (viral RNA) in the lung, Copy number, individual animal: 4.93E+02 and 1.36E+03 and 1.66E+06 and 2.19E+08 and 2.75E+02
  Viral load (viral RNA) in the lung, Log 10, individual animal: 2.69 Log 10 and 3.13 Log 10 and 6.22 Log 10 and 8.34 Log 10 and 2.44 Log 10
SARS-CoV-2 B1; [11]
  Infectious virus in the lung, reduction relative to vehicle: 0.50 (p>0.05) log10 TCID50/mg lung and 0.50 (p>0.05) log10 TCID50/mg lung
  Viral load in the lung, reduction relative to vehicle: 2.01 (p>0.05) log10 copies/mg lung and 2.01 (p>0.05) log10 copies/mg lung
SARS-CoV-2 B1; [12]
  Infectious virus in the lung, reduction relative to vehicle: 4.41 (p=0.02) log10 TCID50/mg lung and 4.41 (p=0.02) log10 TCID50/mg lung
  Viral load in the lung, reduction relative to vehicle: 3.51 (p=0.0003 log10 copies/mg lung and 3.51 (p=0.0003) log10 copies/mg lung
SARS-CoV-2 B1; [13]
  Infectious virus in the lung, reduction relative to vehicle: 4.14 (p=0.03) log10 TCID50/mg lung and 4.14 (p=0.03) log10 TCID50/mg lung
  Viral load in the lung, reduction relative to vehicle: 3.01 (p=0.0019) log10 copies/mg lung and 3.01 (p=0.0019) log10 copies/mg lung
HCoV-229E; read-out: Median EC50
  EC50: > 12.5 µM
HCoV-229E; read-out: Median EC90
  EC90: > 12.5 µM
SARS-CoV-2 (B1 strain)
  EC50: 14 to 22 nM
MHV; read-out: EC50 (column Median EC50; N=1, no median)
  EC50: 1300 nM
MHV; read-out: EC90 (column Median EC90; N=1, no median)
  EC90: 6.3 µM
In vivo [6]
  Vd: 8.4 L/kg
  clearance: 5.2 mL/min/kg
  half-life: 1140 min
In vivo [6]; po
  bioavailability: > 70%
In vivo [7]
  Vd: 8.2 L/kg
  clearance: < 1.5 mL/min/kg
  half-life: > 2400 min
In vivo [7]; po
  bioavailability: > 80%
SHC014
  EC50: 4 to 6 nM
PDCoV; Coronavirus HKU15, Huh-7, Huh7, PDCoV (deltaCoV), N=2, read-out: Median EC50
  EC50: > 30 µM
PDCoV; Coronavirus HKU15, Huh-7, Huh7, PDCoV (deltaCoV), N=2, read-out: Median EC90
  EC90: > 30 µM
PDCoV; PDCoV
  antiviral activity (in words): no activity

Reference: paper PMC11981937 (Nature, 2025)
